Patent publication EP1144368B1, “ACETYLENIC ALPHA-AMINO ACID-BASED SULFONAMIDE HYDROXAMIC ACID TACE INHIBITORS” (priority 1999, dated 2000)
Counter-ions that a name gives are not always drawn. Like-named read-outs stand apart in the source and are kept apart here.

Tests used:
MMP-13 = MMP-13 (Homo sapiens, UniProt P45452); assay: MMP-13 inhibition (thiopeptide or fluorescent peptide substrate); assay type: biochemical
Method: (§1) The enzyme activity is measured by the rate of the color increase. The thiopeptide substrate is made up fresh as a 20 mM stock in 100% DMSO and the DTNB is dissolved in 100% DMSO as a 100 mM stock and stored in the dark at room temperature. Both the substrate and DTNB are diluted together to 1 mM with substrate buffer (50 mM HEPES pH 7.5, 5 mM CaCl2) before use. The stock of enzyme is diluted with buffer (50 mM HEPES, pH 7.5, 5 mM CaCl2, 0.02% Brij) to the desired final concentration.
(§2) Alternatively, a fluorescent peptide substrate is used. In this test procedure, the peptide substrate contains a fluorescent group and a quenching group. Upon cleavage of the substrate by an MMP, the fluorescence that is generated is quantitated on the fluorescence plate reader. The assay is run in HCBC assay buffer (50mM HEPES, pH 7.0, 5 mM Ca^+2, 0.02% Brij, 0.5% Cysteine), with human recombinant MMP-1, MMP-9, or MMP-13. The substrate is dissolved in methanol and stored frozen in 1 mM aliquots. For the assay, substrate and enzymes are diluted in HCBC buffer to the desired concentrations. Compounds are added to the 96 well plate containing enzyme and the reaction is started by the addition of substrate.
(§3) For either the thiopeptide or fluorescent peptide test procedures, the slope of the line is calculated and represents the reaction rate. The linearity of the reaction rate is confirmed (r^2 >0.85). The mean (x±sem) of the control rate is calculated and compared for statistical significance (p<0.05) with drug-treated rates using Dunnett's multiple comparison test.

THP-1 cells = assay: THP-1 Soluble Protein Assay (LPS-stimulated; ELISA of TNF-a, TNF-R p75/80, TNF-R p55/60, IL-8); assay type: cell-based, human; conditions: for inhibition at 3 µM: Homo sapiens
Method: Each vial of cells are cultured for about two weeks prior to being used for an assay and then are used for only 4 to 6 weeks to screen compounds.
Plates are placed into an incubator set at 5% CO2 and at 37° C. After 4 hours of incubation, 300 ml/well of tissue culture supernatant (TCS) is removed for use in an TNF-a ELISA.
Percent change in each soluble protein evaluated from the "vehicle positive control" was calculated for each compound concentration with the following formula: % Change =(pg/ml (compound) - pg/ml (veh pos control))/(pg/ml (veh pos control) - pg/ml (veh neg control))x 100 [formula]
For the soluble protein (TNF-a, p75/80, p55/60, IL-8) studies under stimulated conditions, the mean pg/ml of duplicate wells were determined and the results expressed as percent change from "vehicle positive control".

MMP-9 = MMP-9 (Homo sapiens, UniProt P14780); assay: MMP-9 inhibition (thiopeptide or fluorescent peptide substrate); assay type: biochemical
Method: as §1, §2, §3

TACE = TACE (Homo sapiens, UniProt P78536); assay: TACE inhibition (fluorescent peptidyl substrate); assay type: biochemical; conditions: for inhibition at 1 µM: read-out: % Inhibition at 1 uM
Method: Using 96-well black microtiter plates, each well receives a solution composed of 10 µL TACE (final concentration 1µg/mL), 70µL Tris buffer, pH 7.4 containing 10% glycerol (final concentration 10 mM), and 10 µL of test compound solution in DMSO (final concentration 1µM, DMSO concentration <1%) and incubated for 10 minutes at room temperature.
The reaction is read (excitation 340 nm, emission 420 nm) for 10 min. and the increase in fluorescence over time is plotted as a linear line. The slope of the line is calculated and represents the reaction rate.
The linearity of the reaction rate is confirmed (r^2 >0.85). The mean (x±sem) of the control rate is calculated and compared for statistical significance (p<0.05) with drug-treated rates using Dunnett's multiple comparison test.

MMP-1 = target: T1, MMP-1 (Homo sapiens, UniProt P03956); assay: MMP-1 inhibition (thiopeptide or fluorescent peptide substrate); assay type: biochemical
T1 sequence (P03956 100-469): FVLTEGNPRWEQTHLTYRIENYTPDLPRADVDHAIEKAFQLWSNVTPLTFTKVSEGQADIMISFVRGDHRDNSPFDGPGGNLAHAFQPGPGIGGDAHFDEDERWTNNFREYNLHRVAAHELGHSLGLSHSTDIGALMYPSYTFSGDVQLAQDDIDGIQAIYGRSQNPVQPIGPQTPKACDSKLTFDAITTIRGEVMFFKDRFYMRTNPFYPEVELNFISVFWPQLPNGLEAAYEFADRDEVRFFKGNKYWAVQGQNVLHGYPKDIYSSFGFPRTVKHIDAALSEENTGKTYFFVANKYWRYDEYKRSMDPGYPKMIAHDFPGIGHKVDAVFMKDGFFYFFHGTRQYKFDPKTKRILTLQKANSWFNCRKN
Method: as §1, §2, §3

[1] = THP-1, 3 µM, read-out: THP % Inhibition @ 3µM
[2] = THP-1, read-out: THP % inhibition @ 3 µM, 3 µM
[3] = In Vitro Inhibition of TACE, 1 uM
[4] = Table 15: In Vitro Inhibition of TACE

Chain of TACE (P78536 215-824): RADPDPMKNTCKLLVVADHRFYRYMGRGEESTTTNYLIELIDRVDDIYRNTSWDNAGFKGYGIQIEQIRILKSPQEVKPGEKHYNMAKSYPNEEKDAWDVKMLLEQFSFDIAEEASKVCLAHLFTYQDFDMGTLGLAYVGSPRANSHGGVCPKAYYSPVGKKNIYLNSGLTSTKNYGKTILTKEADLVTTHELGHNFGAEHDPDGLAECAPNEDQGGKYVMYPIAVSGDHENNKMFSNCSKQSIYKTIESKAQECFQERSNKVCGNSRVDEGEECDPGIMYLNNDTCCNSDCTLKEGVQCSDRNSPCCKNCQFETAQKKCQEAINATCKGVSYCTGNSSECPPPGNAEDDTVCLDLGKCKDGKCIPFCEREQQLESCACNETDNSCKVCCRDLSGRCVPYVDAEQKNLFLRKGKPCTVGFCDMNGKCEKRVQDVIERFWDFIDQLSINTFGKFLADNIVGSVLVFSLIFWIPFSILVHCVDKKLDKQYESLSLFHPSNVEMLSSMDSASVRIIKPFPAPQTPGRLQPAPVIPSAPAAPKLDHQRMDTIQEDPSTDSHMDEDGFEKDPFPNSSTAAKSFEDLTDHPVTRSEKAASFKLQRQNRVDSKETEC
Chain of MMP-9 (P14780 107-707 limits assumed): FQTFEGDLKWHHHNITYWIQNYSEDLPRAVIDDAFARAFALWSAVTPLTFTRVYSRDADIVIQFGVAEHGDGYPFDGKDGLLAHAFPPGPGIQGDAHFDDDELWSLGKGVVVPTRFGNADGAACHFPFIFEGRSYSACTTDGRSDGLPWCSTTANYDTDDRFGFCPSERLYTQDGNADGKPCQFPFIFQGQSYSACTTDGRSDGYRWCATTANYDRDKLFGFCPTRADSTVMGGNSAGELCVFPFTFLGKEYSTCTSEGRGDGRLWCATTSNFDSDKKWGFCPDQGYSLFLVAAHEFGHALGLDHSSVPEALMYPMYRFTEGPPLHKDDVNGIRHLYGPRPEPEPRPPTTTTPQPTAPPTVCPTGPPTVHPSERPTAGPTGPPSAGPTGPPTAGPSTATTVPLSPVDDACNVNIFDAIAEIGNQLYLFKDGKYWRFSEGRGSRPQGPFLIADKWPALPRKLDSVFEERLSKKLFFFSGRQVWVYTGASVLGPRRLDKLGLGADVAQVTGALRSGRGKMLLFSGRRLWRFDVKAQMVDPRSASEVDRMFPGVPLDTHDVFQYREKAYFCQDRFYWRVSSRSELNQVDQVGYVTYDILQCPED

CC#CCOc1ccc(S(=O)(=O)N2CCN(C)CCC2C(=O)NO)cc1 (centres unmarked) [Example 293, 4-{[4-(2-Butynyloxy)phenyl]sulfonyl}-N-hydroxy-1-methyl-1,4-diazepane-5-carboxamide] was tested, and the IC50 (MMP-13) was 21 nM and the inhibition at 3 µM (THP-1 cells; [1]) was 82%.

For CC#CCOc1ccc(S(=O)(=O)N(C)C(CSCc2ccccc2)C(=O)NO)cc1 (centres unmarked) [Example 156, 3-(Benzylthio) -2-[[[4-(2-butynyloxy)phenyl]sulfonyl]methylamino] -N-hydroxypropanamide], the IC50 (MMP-9) was 11 nM, the IC50 (MMP-13) was 4.5 nM and the IC50 (TACE; read-out: TACE IC50) was 4.8 nM. The inhibition at 3 µM (THP-1 cells; [2]) was 75%.

In the case of “9-({[4-(2-Butynyloxy)phenyl]sulfonyl}-N-hydroxy-1-thia-4-azaspiro [5,5]undecane-5-carboxamide [Example 237]”, the IC50 (MMP-1) is reported as 62 nM, the IC50 (MMP-13) is reported as 12 nM and the IC50 (TACE; read-out: TACE IC50) is reported as 212 nM. The “THP % inhibition @ 3 µM” value (THP-1 cells) was 90%.

CC#CCOc1ccc(S(=O)(=O)N2CC(CNC(=O)OC(C)(C)C)SC(C)(C)C2C(=O)NO)cc1 [Example 274, tert-Butyl{(2S,5S)-4-{[4-(2-butynyloxy)phenyl]sulfonyl}-5-[(hydroxyamino)carbonyl]-6,6-dimethylthiomorpholinyl}methylcarbamate] was tested, and the IC50 (MMP-9) was 107 nM, the IC50 (TACE; Tables 11-14, read-out: TACE IC50) was 59 nM and the “THP % inhibition @ 3 µM” value (THP-1 cells) was 84%.

With CC#CCOc1ccc(S(=O)(=O)N2CCN(C(=O)c3ccccc3)CCC2C(=O)NO)cc1 (centres unmarked) [Example 289, 1-Benzoyl-4-{[4-(2-butynyloxy)phenyl]sulfonyl}-N-hydroxy-1,4-diazepane-5-carboxamide] the IC50 (MMP-13) was 4 nM.

CC#CCOc1ccc(S(=O)(=O)N[C@@H](Cc2ccc(O)cc2)C(=O)NO)cc1 [Example 102] showed an inhibition at 1 µM (TACE; [3]) of 27.3%.

With CC#CCOc1ccc(S(=O)(=O)N[C@H](Cc2ccc(F)c(F)c2)C(=O)NO)cc1 [Example 315] the IC50 (TACE; [4]) was 5.7 nM.

Molecule C#CCNc1ccc(S(=O)(=O)N(C)CC(=O)NO)cc1 [Example 133, N-Hydroxy-2-(methyl{[4-(prop-2-ynylamino)phenyl]sulfonyl}amino)acetamide] has an IC50 (MMP-9) of 1510 nM, an IC50 (MMP-13) of 751 nM and an IC50 (TACE; read-out: TACE IC50) of 120 nM. For the same molecule, the inhibition at 3 µM (THP-1 cells; [2]) was 8%.

CC#CCOc1ccc(S(=O)(=O)N[C@H](CSCc2ccc(OC)cc2)C(=O)NO)cc1 [Example 302] was tested, and the inhibition at 1 µM (TACE; [3]) was 3%.

In the case of CC#CCOc1ccc(S(=O)(=O)N[C@H](Cc2c[nH]c3ccccc23)C(=O)NO)cc1 [Example 83], the inhibition at 1 µM (TACE; [3]) is reported as 105%.

For CC#CCOc1ccc(S(=O)(=O)N(C)C(C(=O)NO)c2ccc(OCCCNC(=O)OCc3ccccc3)cc2)cc1 (centres unmarked) [Example 196, Benzyl3-{4-[1-[{[4-(2-butynyloxy)phenyl]sulfonyl}(methyl)amino]-2-(hydroxyamino)-2-oxoethyl]phenoxy}propylcarbamate], the “MMP-1 %@1” value (MMP-1; @1 (concentration unit not given)) was 25%@1 and the inhibition at 3 µM (THP-1 cells; [2]) was 87%.

CC#CCOc1ccc(S(=O)(=O)N[C@@H](CC)C(=O)NO)cc1 [Example 63] showed an inhibition at 1 µM (TACE; [3]) of 47.6%.

In the case of CC#CCOc1ccc(S(=O)(=O)N(C)[C@@H](C)C(=O)NO)cc1 [Example 107, (2S)-2-[(4-But-2-ynyloxy-benzenesulfonyl)-methyl-amino]-N-hydroxy-propionamide], the IC50 (MMP-1) is reported as 330 nM, the IC50 (MMP-9) is reported as 68 nM and the IC50 (TACE; read-out: TACE IC50) is reported as 4.5 nM.

In the case of CC#CCOc1ccc(S(=O)(=O)N[C@@H](CC(=O)O)C(=O)NO)cc1 [Example 67], the inhibition at 1 µM (TACE; [3]) is reported as 46.2%.

CC#CCOc1ccc(S(=O)(=O)N[C@H](CC(=O)O)C(=O)NO)cc1 [Example 298] was tested, and the inhibition at 1 µM (TACE; [3]) was 40%.

Molecule CC#CCOc1ccc(S(=O)(=O)N(CCCCN2CCN(C)CC2)C(C(=O)NO)C(C)C)cc1 (centres unmarked) [Example 122, 2-{{[4-(2-Butynyloxy)phenyl]sulfonyl}[4-(4-methyl-1-piperazinyl)butyl]amino}-N-hydroxy-3-methylbutanamide] has an IC50 (TACE; read-out: TACE IC50) of 126 nM and an inhibition at 3 µM (THP-1 cells; [2]) of 69%.

CC#CCOc1ccc(S(=O)(=O)NCCC(=O)NO)cc1 [Example 69] showed an inhibition at 1 µM (TACE) of 48.5%.

With CC#CCOc1ccc(S(=O)(=O)N[C@H](C(=O)NO)[C@@H](C)O)cc1 [Example 100] the inhibition at 1 µM (TACE) was 15.4%.

With CC#CCOc1ccc(S(=O)(=O)N[C@@H](CO)C(=O)NO)cc1 [Example 98] the inhibition at 1 µM (TACE; [3]) was 2.5%.

Work on CC#CCOc1ccc(S(=O)(=O)N2CCSC(C)(C)C2C(=O)NO)cc1 (centres unmarked) [235, 38] yielded an IC50 (MMP-1) of 6.6 nM, an IC50 (TACE; read-out: TACE IC50) of 8.4 nM and an inhibition at 3 µM (THP-1 cells; [2]) of 94%.

Work on CC#CCOc1ccc(S(=O)(=O)N[C@@H](CCCCN)C(=O)NO)cc1 [Example 92] yielded an inhibition at 1 µM (TACE; [3]) of 102%.

CC#CCOc1ccc(S(=O)(=O)N[C@@H](CCCNC(=N)N)C(=O)NO)cc1 [Example 64] showed an inhibition at 1 µM (TACE; [3]) of 67.4%.

In the case of CC#CCOc1ccc(S(=O)(=O)N[C@@H](CC2CCCCC2)C(=O)NO)cc1 [Example 71], the inhibition at 1 µM (TACE; [3]) is reported as 86.7%.

CC#CCOc1ccc(S(=O)(=O)N2C[C@H](OCc3ccccc3)C[C@H]2C(=O)NO)cc1 [Example 88] showed an inhibition at 1 µM (TACE; [3]) of 8.4%.

For CC#CCOc1ccc(S(=O)(=O)N[C@@H](Cc2cnc[nH]2)C(=O)NO)cc1 [Example 87], the inhibition at 1 µM (TACE; [3]) was 47.8%.

For CC#CCOc1ccc(S(=O)(=O)N(C)CC(=O)NO)cc1 [Example 17, 2-[(4-But-2-ynyloxy-benzenesulfonyl)-methyl-amino]-N-hydroxy-acetamide], the IC50 (MMP-1) was 1900 nM, the IC50 (MMP-13) was 99 nM and the inhibition at 3 µM (THP-1 cells; [2]) was 33%.

For CC#CCOc1ccc(S(=O)(=O)N[C@@H](CC(C)C)C(=O)NO)cc1 [Example 90], the inhibition at 1 µM (TACE; [3]) was 58.9%.

For CC#CCOc1ccc(S(=O)(=O)N2C[C@H](CN)SC(C)(C)[C@@H]2C(=O)NO)cc1 [Example 276, (3S,6S)-Cis-6-(aminomethyl)-4-{[4-(2-butynyloxy)phenyl]sulfonyl}-N-hydroxy-2,2-dimethyl-3-thiomorpholinecarboxamide hydrochloride], the IC50 (MMP-9) was 64 nM and the inhibition at 3 µM (THP-1 cells; [1]) was 94%.

With CC#CCOc1ccc(S(=O)(=O)N[C@H](C(=O)NO)[C@@H](C)CC)cc1 [Example 89] the inhibition at 1 µM (TACE; [3]) was 56.8%.

In the case of CC#CCOc1ccc(S(=O)(=O)N[C@@H](COCc2ccccc2)C(=O)NO)cc1 [Example 97], the inhibition at 1 µM (TACE; [3]) is reported as 67.5%.

Molecule CC#CCOc1ccc(S(=O)(=O)N2CCSC(CC)(CC)C2C(=O)NO)cc1 (centres unmarked) [Example 238] has an IC50 (MMP-1) of 38 nM, an IC50 (MMP-13) of 6.8 nM and an IC50 (TACE; read-out: TACE IC50) of 228 nM. It also gave an inhibition at 3 µM (THP-1 cells; [2]) of 73%.

In the case of CC#CCOc1ccc(S(=O)(=O)N[C@@H](CSCc2ccc(OC)cc2)C(=O)NO)cc1 [Example 74], the inhibition at 1 µM (TACE; [3]) is reported as 73.8%.

CC#CCOc1ccc(S(=O)(=O)N(C)C(CSCc2cccnc2)C(=O)NO)cc1 (centres unmarked) [Example 155, 2-[(4-But-2-ynyloxy-benenesulfonyl)-methyl-amino]-N-hydroxy-3-(pyridin-3-ylmethylsulfanyl)-butyramide] showed an IC50 (MMP-9) of 14 nM and an inhibition at 3 µM (THP-1 cells; [2]) of 93%.

For CC#CCOc1ccc(S(=O)(=O)N[C@@H](CCCNC(N)=NS(=O)(=O)c2ccc(C)cc2)C(=O)NO)cc1 [Example 65], the inhibition at 1 µM (TACE; [3]) was 102%.

In the case of CC#CCOc1ccc(S(=O)(=O)N[C@H](CC(C)C)C(=O)NO)cc1 [Example 79], the inhibition at 1 µM (TACE; [3]) is reported as 107% and the IC50 (TACE; [4]) is reported as 5.7 ± 2.5 nM.

For CC#CCOc1ccc(S(=O)(=O)N[C@@H](C)C(=O)NO)cc1 [Example 62B, L-2-(4-But-2-ynyloxy-benzenesulfonylamino)-N-hydroxy-propionamide], the inhibition at 1 µM (TACE) was 46.2%.

With CC#CCOc1ccc(S(=O)(=O)N[C@@H](CCCC)C(=O)NO)cc1 [Example 93] the inhibition at 1 µM (TACE; [3]) was 61.7%.

Work on CC#CCOc1ccc(S(=O)(=O)N[C@@H](CSC(C)(C)C)C(=O)NO)cc1 [Example 73] yielded an inhibition at 1 µM (TACE; [3]) of 79% and an IC50 (TACE; [4]) of 451 ± 31 nM.
